# Tests used:
# [1] = target: T1, Aurora kinase A (Homo sapiens) (UniProt O14965); test: Inhibition of human full length AurA expressed in baculovirus assessed as substrate phosphorylation using fluorescence-labelled peptides as substrate at 0.2 uM after 90 mins by microfluidic peptide phosphorylation assay
# T1 sequence (whole entry): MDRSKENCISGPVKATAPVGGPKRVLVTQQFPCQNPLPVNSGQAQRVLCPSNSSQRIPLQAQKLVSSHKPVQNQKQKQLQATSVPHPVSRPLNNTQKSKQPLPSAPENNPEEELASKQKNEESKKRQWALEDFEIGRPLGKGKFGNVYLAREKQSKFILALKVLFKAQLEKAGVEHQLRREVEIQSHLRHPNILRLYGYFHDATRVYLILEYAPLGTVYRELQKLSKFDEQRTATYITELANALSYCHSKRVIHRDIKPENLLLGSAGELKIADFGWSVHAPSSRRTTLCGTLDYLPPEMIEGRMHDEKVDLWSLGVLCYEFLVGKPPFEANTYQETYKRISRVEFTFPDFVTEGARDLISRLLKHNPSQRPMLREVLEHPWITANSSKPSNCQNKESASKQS
# [2] = target: T2, Calcium/calmodulin-dependent protein kinase type IV (Homo sapiens) (UniProt Q16566); test: Inhibition of human full length CAMK4 expressed in baculovirus assessed as substrate phosphorylation using fluorescence-labelled peptides as substrate at 70 uM after 90 mins by microfluidic peptide phosphorylation assay
# T2 sequence (whole entry): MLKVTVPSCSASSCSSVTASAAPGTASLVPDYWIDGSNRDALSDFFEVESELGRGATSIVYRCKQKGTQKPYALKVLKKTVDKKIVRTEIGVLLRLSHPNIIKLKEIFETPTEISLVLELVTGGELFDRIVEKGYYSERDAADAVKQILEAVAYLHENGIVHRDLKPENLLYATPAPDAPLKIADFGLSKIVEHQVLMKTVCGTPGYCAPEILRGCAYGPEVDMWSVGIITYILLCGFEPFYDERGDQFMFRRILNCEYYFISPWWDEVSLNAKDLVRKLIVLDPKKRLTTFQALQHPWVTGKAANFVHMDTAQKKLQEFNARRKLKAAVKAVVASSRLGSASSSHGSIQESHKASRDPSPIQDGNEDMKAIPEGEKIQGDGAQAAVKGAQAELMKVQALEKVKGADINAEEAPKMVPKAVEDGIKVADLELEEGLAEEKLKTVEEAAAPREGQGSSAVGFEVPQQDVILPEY
# [3] = target: Casein kinase I isoform delta (Homo sapiens) (UniProt P48730); test: Inhibition of human CK1D catalytic domain expressed in Escherichia coli cell assessed as substrate phosphorylation using fluorescence-labelled peptides as substrate at 95 uM after 90 mins by microfluidic peptide phosphorylation assay
# [4] = target: T3, Serine/threonine-protein kinase D2 (Homo sapiens) (UniProt Q9BZL6); test: Inhibition of human full length PKD2 expressed in baculovirus assessed as substrate phosphorylation using fluorescence-labelled peptides as substrate at 95 uM after 90 mins by microfluidic peptide phosphorylation assay
# T3 sequence (whole entry): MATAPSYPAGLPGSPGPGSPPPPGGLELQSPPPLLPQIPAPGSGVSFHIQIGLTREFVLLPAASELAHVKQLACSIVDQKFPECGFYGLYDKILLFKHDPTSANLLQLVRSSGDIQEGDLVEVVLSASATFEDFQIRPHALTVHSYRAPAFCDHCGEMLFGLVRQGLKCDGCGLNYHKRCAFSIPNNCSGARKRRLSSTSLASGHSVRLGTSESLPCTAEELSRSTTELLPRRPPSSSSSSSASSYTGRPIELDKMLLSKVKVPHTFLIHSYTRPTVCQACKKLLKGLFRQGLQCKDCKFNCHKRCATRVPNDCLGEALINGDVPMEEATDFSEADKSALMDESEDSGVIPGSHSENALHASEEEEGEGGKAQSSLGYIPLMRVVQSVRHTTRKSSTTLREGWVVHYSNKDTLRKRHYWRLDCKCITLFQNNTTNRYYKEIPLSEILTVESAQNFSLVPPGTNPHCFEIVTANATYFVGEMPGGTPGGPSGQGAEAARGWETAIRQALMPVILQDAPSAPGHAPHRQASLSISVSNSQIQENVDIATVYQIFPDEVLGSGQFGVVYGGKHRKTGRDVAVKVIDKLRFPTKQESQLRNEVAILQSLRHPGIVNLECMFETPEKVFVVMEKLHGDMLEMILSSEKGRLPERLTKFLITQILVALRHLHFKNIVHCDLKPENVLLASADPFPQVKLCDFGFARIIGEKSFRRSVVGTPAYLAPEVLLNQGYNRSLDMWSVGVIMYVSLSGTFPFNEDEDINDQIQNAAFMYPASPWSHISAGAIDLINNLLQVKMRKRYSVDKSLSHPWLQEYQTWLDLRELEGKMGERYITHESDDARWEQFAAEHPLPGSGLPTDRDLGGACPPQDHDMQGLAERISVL
# [5] = target: Tyrosine-protein kinase Fer (Homo sapiens) (UniProt P16591); test: Inhibition of human FER catalytic domain expressed in baculovirus assessed as substrate phosphorylation using fluorescence-labelled peptides as substrate at 8 uM after 90 mins by microfluidic peptide phosphorylation assay
# [6] = target: T4, Serine/threonine-protein kinase Sgk1 (Homo sapiens) (UniProt O00141); test: Inhibition of human truncated SGK1 expressed in baculovirus assessed as substrate phosphorylation using fluorescence-labelled peptides as substrate at 8 uM after 90 mins by microfluidic peptide phosphorylation assay
# T4 sequence (whole entry): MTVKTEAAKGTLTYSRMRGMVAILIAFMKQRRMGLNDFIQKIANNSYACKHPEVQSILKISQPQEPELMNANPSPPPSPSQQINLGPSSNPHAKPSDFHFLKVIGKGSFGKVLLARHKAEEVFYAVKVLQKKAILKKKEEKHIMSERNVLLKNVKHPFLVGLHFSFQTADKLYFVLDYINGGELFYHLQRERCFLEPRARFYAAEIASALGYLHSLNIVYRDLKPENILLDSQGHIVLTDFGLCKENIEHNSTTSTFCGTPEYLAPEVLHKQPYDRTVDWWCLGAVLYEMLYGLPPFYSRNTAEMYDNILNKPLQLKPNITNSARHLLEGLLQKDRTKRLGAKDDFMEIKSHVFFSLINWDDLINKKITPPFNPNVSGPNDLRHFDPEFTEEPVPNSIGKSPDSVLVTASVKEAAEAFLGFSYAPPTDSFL
# Tyrosine-protein kinase Fer (Homo sapiens), sequence (P16591 whole entry, looked up, the tested form may be a part): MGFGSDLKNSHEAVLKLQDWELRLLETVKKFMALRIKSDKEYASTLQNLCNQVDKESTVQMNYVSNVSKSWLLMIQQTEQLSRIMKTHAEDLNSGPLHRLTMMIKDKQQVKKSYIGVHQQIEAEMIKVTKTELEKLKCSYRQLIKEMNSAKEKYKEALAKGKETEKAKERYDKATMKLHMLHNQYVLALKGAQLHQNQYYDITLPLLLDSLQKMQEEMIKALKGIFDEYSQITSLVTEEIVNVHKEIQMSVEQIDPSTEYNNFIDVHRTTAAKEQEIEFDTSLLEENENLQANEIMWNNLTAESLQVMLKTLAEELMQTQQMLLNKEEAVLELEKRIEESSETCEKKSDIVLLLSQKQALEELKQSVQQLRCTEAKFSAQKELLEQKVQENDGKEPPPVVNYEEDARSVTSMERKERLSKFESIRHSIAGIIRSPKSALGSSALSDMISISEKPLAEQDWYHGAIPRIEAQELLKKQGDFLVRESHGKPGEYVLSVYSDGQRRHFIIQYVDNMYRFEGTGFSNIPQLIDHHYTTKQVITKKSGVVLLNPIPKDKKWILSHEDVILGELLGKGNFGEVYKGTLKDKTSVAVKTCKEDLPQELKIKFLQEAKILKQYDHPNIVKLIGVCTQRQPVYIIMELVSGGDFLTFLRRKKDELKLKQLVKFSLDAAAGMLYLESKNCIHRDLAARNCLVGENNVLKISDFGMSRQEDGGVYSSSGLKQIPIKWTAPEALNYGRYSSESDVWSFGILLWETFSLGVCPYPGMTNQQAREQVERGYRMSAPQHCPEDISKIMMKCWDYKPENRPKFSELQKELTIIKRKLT
# Casein kinase I isoform delta (Homo sapiens), sequence (P48730 whole entry, looked up, the tested form may be a part, canonical isoform): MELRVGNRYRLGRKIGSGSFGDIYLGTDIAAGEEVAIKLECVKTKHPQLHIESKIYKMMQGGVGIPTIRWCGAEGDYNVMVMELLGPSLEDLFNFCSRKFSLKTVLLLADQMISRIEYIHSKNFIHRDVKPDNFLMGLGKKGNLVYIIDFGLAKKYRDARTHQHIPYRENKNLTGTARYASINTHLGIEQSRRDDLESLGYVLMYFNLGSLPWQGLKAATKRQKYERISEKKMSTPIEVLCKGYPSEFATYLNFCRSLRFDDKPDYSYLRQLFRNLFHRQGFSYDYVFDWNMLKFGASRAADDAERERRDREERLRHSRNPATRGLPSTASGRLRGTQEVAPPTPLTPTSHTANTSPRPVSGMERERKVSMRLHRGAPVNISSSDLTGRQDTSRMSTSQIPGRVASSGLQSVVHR
compound,measurement,setting,value
Clc1ccc(C2(c3ccc(-c4ncnc5[nH]cnc45)cc3)CCNCC2)cc1,inhibition,[1],49%
CNCc1ccc(-c2ncnc3[nH]cnc23)cc1,inhibition,[2],77.5%
NCCc1ccc(-c2ncnc3[nH]cnc23)cc1,inhibition,[3],77.5%
same,inhibition,[4],77.5%
NCC1CCN(c2ncnc3[nH]ccc23)CC1,inhibition,[5],1.5%
same,inhibition,[6],59%

# Source: ChEMBL document CHEMBL3132769, “Fragment growing to retain or alter the selectivity of anchored kinase hinge-binding fragments” (Medchemcomm, 2014)
